The numbers were not newly measured in US10441569B2, “Self-emulsifying formulations of DIM-related indoles” (BioResponse, L.L.C., priority 2015, dated 2019), which cites them from elsewhere.

The conditions of this series: cited from earlier work; for log P: no own measurement; for Log P of 2nd API drug: table of exemplary 2nd API drugs.

As to `CC(O)(CS(=O)(=O)c1ccc(F)cc1)C(=O)Nc1ccc(C#N)c(C(F)(F)F)c1` (stereo not shown) [Biculatamide, Bicalutamide], the log P (as a rule, a log measure of how a compound divides between an organic and an aqueous phase) is 4.94. Consider `COc1cc2ncnc(Nc3ccc(F)c(Cl)c3)c2cc1OCCCN1CCOCC1` [Gefitinib, N-(3-chloro-4-fluoro-phenyl)-7-methoxy-6-(3-morpholin-4-ylpropoxy)quinazolin-4-amine], for which the lipophilicity (log P) is reported as 3.72 and the “Log P of 2nd API drug” value is on record as 3.72.

As to `CNC(=O)c1cccc2cc(Oc3ccnc4cc(OCC5(N)CC5)c(OC)cc34)ccc12` [Lucitanib, 6-[7-[(1-aminocyclopropyl)methoxy]-6-methoxyquinolin-4-yl]oxy-N-methylnaphthalene-1-carboxamide], the “log P” value is 3.81 and the “Log P of 2nd API drug” value is 3.81.

For the molecule `CCCCCCCCCCCCCCCC(=O)OC/C=C(C)/C=C/C=C(C)/C=C/C1=C(C)CCCC1(C)C` [Retinyl palmitate, Retinyl Palmitate], the log partition coefficient (log P) is recorded as 5.68. Consider `COc1cc(C)c(/C=C/C(C)=C/C=C/C(C)=C/C(=O)O)c(C)c1C` [acitretin], for which the “log P” value is listed as 5.73. Turning to `CC1=C(/C=C/C(C)=C/C=C/C(C)=C\C(=O)O)C(C)(C)CCC1` [isotretinoin, 13-cis retinoic acid], the “log P” value is on record as 6.83. `CC(C)=CCC/C(C)=C/CC/C(C)=C/CC/C(C)=C/CC1=C(C)C(=O)c2ccccc2C1=O` [menaquinone-4]: the lipophilicity (log P) is on record as 10-12. Vitamin D: the “log P” value is reported as 7.5.
